Data from patent US9611249B2, “1H-indazole-3-carboxamide compounds as glycogen synthase kinase 3 beta inhibitors” (AZIENDE CHIMICHE RIUNITE ANGELINI FRANCESCO A.C.R.A.F. …, priority 2012, dated 2017).

What was measured:
Format in all cases: biochemical
human GSK-3β = human GSK-3β (Homo sapiens (Human), UniProt P49841); experiment: Activity on human GSK-3β, LANCE substrate phosphorylation assay; settings: 10 μM, in duplicate, first screening assay
Protocol: Activity on human GSK-3β was assessed using the following methods (according to Meijer et al., Chem. Biol., 2003-10:1255-1266).
In a first screening assay, compounds were tested in duplicate at a concentration of 10 μM.
Human recombinant enzyme GSK-3β was incubated for 90 minutes at 22° C. in the presence of compounds or vehicle in a reaction buffer containing ATP plus 100 nM unphosphorylated specific substrate peptide (Ulight-[…] K-amide). Substrate phosphorylation was measured by LANCE technology (PerkinElmer, Conn., USA).
In a second assay, the same compounds were assayed at five concentrations ranging from 100 μM to 10 nM with ten-fold dilutions in duplicate.
The IC50 values (concentration causing a half maximal inhibition of control specific activity), reported in table 4, were determined by non-linear regression analysis of the inhibition curves generated with mean replicate values using Hill equation curve fitting.

c-Met kinase (h) = c-Met kinase (h) (Homo sapiens (Human), UniProt P08581); experiment: Kinase selectivity panel: c-Met kinase (h); settings: 10 μM in duplicate, read-out: % inhibition of control values
Protocol: (§1) (a) Compounds 1 and 2 were tested against a panel of 60 kinases in order to assess their selectivity. The assays were chosen taking into consideration the diversity of assay families.
(§2) Tested kinases were representative of following kinase sub-families: • protein-serine/threonine kinases; • protein-tyrosine kinases; • other kinases; and • atypical kinases.
(§3) Human recombinant kinases were incubated in the presence of specific peptide substrates plus ATP for different times (10, 15, 30, 60 or 90 minutes) at 22° C. Phosphorylated substrate was detected by LANCE or HTRF technology (CISBIO, MA, USA). The compounds were tested at 10 μM in duplicate.
(§4) The results are expressed as a percentage of inhibition of control specific activity obtained in the presence of the test compounds and are reported in the following Table 5.
(§5) (b) Compounds 3, 8, 29 and 31 were tested against the same panel of 60 kinases under the same conditions described above for compounds 1 and 2.
(§6) The results are expressed as a percent of inhibition of control specific activity obtained in the presence of the test compounds and are reported in the following Table 6.

EphA4 kinase (h) = EphA4 kinase (h) (Homo sapiens (Human), UniProt P54764); experiment: Kinase selectivity panel: EphA4 kinase (h); settings: 10 μM in duplicate, read-out: % inhibition of control values
Protocol: as §1, §2, §3, §4, §5, §6

FGFR4 kinase (h) = FGFR4 kinase (h) (Homo sapiens (Human), UniProt P22455); experiment: Kinase selectivity panel: FGFR4 kinase (h); settings: 10 μM in duplicate, read-out: % inhibition of control values
Protocol: as §1, §2, §3, §4, §5, §6

JAK1 (h) = JAK1 (h) (Homo sapiens (Human), UniProt P23458); experiment: Kinase selectivity panel: JAK1 (h); settings: 10 μM in duplicate, read-out: % inhibition of control values
Protocol: as §1, §2, §3, §4, §5, §6

JAK2 (h) = JAK2 (h) (Homo sapiens (Human), UniProt O60674); experiment: Kinase selectivity panel: JAK2 (h); settings: 10 μM in duplicate, read-out: % inhibition of control values
Protocol: as §1, §2, §3, §4, §5, §6

Src kinase (h) = Src kinase (h) (Homo sapiens (Human), UniProt P12931); experiment: Kinase selectivity panel: Src kinase (h); settings: 10 μM in duplicate, read-out: % inhibition of control values
Chain of Src kinase (h) (P12931 whole entry, looked up): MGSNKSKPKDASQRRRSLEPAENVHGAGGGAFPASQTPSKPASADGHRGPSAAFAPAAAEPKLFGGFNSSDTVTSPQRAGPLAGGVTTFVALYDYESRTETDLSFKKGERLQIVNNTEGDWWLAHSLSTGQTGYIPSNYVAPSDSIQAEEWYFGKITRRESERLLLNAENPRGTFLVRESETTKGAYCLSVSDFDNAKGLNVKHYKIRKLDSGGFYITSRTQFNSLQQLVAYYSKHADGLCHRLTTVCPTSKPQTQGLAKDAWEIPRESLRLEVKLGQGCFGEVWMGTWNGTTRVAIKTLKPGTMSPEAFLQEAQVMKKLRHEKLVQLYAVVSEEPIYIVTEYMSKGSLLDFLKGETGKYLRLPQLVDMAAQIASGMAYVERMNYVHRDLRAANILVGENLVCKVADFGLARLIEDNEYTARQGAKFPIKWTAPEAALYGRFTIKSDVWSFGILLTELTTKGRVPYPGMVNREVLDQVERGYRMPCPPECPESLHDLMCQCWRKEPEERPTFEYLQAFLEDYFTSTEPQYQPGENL
Protocol: as §1, §2, §3, §4, §5, §6

DYRK1a (h) = DYRK1a (h) (Homo sapiens (Human), UniProt Q13627); experiment: Kinase selectivity panel: DYRK1a (h); settings: 10 μM in duplicate, read-out: % inhibition of control values
Protocol: as §1, §2, §3, §4, §5, §6

CDC2/CDK1 (h) (cycB) = CDC2/CDK1 (h) (cycB) (Homo sapiens (Human), UniProt P06493); experiment: Kinase selectivity panel: CDC2/CDK1 (h) (cycB); settings: 10 μM in duplicate, read-out: % inhibition of control values
Protocol: as §1, §2, §3, §4, §5, §6

ERK2 (h) (P42mapk) = ERK2 (h) (P42mapk) (Homo sapiens (Human), UniProt P28482); experiment: Kinase selectivity panel: ERK2 (h) (P42mapk); settings: 10 μM in duplicate, read-out: % inhibition of control values
Protocol: as §1, §2, §3, §4, §5, §6

Pim2 kinase (h) = Pim2 kinase (h) (Homo sapiens (Human), UniProt Q9P1W9); experiment: Kinase selectivity panel: Pim2 kinase (h); settings: 10 μM in duplicate, read-out: % inhibition of control values
Chain of Pim2 kinase (h) (Q9P1W9 whole entry): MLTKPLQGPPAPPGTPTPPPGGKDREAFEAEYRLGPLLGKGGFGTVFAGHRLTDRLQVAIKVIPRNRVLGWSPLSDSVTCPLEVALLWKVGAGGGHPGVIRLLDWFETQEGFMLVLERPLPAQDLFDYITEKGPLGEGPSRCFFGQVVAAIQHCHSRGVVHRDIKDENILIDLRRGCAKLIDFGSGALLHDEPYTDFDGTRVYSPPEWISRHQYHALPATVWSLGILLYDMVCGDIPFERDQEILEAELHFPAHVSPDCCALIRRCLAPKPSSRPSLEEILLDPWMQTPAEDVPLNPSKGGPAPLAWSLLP
Protocol: as §1, §2, §3, §4, §5, §6

PhKgamma 2 (h) = PhKgamma 2 (h) (Homo sapiens (Human), UniProt P15735); experiment: Kinase selectivity panel: PhKgamma 2 (h); settings: 10 μM in duplicate, read-out: % inhibition of control values
Chain of PhKgamma 2 (h) (P15735 whole entry): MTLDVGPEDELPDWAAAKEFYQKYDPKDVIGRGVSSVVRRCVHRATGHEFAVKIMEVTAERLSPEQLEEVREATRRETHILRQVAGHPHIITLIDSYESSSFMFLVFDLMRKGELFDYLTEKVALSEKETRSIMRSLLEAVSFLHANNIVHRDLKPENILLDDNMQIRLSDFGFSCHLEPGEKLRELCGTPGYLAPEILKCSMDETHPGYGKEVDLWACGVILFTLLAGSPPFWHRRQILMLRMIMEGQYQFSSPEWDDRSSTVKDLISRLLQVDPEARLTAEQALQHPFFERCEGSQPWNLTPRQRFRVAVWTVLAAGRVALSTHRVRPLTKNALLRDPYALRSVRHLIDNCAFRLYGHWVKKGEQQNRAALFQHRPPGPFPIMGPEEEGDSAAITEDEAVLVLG
Protocol: as §1, §2, §3, §4, §5, §6

Pim1 kinase (h) = Pim1 kinase (h) (Homo sapiens (Human), UniProt P11309); experiment: Kinase selectivity panel: Pim1 kinase (h); settings: 10 μM in duplicate, read-out: % inhibition of control values
Protocol: as §1, §2, §3, §4, §5, §6

GRK3/BARK2 (h) (ADRBK2) = GRK3/BARK2 (h) (ADRBK2) (Homo sapiens (Human), UniProt P35626); experiment: Kinase selectivity panel: GRK3/BARK2 (h) (ADRBK2); settings: 10 μM in duplicate, read-out: % inhibition of control values
Chain of GRK3/BARK2 (h) (ADRBK2) (P35626 whole entry): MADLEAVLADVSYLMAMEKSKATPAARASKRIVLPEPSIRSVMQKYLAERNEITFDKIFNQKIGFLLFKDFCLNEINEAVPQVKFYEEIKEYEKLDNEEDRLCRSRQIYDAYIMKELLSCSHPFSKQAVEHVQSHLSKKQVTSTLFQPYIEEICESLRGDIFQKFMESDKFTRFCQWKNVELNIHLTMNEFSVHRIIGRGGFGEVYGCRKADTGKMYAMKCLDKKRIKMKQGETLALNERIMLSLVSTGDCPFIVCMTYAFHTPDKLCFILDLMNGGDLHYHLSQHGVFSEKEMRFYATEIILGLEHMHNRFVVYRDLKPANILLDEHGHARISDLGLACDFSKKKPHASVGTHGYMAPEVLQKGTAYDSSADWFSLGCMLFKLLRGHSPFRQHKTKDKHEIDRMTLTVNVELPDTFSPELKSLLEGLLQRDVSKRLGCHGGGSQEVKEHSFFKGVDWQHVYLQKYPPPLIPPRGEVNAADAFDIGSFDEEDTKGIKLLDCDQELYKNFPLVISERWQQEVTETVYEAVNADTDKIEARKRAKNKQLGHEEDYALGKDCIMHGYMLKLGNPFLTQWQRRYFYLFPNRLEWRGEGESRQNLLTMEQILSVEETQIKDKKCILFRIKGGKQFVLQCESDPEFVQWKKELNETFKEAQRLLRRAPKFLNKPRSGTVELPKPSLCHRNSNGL
Protocol: as §1, §2, §3, §4, §5, §6

PDK1 (h) = PDK1 (h) (Homo sapiens (Human), UniProt O15530); experiment: Kinase selectivity panel: PDK1 (h); settings: 10 μM in duplicate, read-out: % inhibition of control values
Chain of PDK1 (h) (O15530 whole entry): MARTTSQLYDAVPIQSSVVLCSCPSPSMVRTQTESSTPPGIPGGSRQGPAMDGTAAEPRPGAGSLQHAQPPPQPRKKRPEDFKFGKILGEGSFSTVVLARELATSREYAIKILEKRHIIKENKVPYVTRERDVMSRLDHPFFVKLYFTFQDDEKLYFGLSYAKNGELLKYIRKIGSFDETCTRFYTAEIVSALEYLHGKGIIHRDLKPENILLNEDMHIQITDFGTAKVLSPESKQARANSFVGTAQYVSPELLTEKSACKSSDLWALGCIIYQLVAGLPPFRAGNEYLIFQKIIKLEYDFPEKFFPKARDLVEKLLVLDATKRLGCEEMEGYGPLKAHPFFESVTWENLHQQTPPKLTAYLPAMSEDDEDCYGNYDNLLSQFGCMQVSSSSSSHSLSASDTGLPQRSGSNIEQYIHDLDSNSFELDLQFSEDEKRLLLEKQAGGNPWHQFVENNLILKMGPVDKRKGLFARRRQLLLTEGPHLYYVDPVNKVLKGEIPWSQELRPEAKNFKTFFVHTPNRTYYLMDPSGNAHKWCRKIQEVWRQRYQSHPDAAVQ
Protocol: as §1, §2, §3, §4, §5, §6

PKCalpha (h) = PKCalpha (h) (Homo sapiens (Human), UniProt P17252); experiment: Kinase selectivity panel: PKCalpha (h); settings: 10 μM in duplicate, read-out: % inhibition of control values
Protocol: as §1, §2, §3, §4, §5, §6

PKCgamma (h) = PKCgamma (h) (Homo sapiens (Human), UniProt P05129); experiment: Kinase selectivity panel: PKCgamma (h); settings: 10 μM in duplicate, read-out: % inhibition of control values
Protocol: as §1, §2, §3, §4, §5, §6

HGK (h) (MAP4K4) = HGK (h) (MAP4K4) (Homo sapiens (Human), UniProt O95819); experiment: Kinase selectivity panel: HGK (h) (MAP4K4); settings: 10 μM in duplicate, read-out: % inhibition of control values
Chain of HGK (h) (MAP4K4) (O95819 whole entry): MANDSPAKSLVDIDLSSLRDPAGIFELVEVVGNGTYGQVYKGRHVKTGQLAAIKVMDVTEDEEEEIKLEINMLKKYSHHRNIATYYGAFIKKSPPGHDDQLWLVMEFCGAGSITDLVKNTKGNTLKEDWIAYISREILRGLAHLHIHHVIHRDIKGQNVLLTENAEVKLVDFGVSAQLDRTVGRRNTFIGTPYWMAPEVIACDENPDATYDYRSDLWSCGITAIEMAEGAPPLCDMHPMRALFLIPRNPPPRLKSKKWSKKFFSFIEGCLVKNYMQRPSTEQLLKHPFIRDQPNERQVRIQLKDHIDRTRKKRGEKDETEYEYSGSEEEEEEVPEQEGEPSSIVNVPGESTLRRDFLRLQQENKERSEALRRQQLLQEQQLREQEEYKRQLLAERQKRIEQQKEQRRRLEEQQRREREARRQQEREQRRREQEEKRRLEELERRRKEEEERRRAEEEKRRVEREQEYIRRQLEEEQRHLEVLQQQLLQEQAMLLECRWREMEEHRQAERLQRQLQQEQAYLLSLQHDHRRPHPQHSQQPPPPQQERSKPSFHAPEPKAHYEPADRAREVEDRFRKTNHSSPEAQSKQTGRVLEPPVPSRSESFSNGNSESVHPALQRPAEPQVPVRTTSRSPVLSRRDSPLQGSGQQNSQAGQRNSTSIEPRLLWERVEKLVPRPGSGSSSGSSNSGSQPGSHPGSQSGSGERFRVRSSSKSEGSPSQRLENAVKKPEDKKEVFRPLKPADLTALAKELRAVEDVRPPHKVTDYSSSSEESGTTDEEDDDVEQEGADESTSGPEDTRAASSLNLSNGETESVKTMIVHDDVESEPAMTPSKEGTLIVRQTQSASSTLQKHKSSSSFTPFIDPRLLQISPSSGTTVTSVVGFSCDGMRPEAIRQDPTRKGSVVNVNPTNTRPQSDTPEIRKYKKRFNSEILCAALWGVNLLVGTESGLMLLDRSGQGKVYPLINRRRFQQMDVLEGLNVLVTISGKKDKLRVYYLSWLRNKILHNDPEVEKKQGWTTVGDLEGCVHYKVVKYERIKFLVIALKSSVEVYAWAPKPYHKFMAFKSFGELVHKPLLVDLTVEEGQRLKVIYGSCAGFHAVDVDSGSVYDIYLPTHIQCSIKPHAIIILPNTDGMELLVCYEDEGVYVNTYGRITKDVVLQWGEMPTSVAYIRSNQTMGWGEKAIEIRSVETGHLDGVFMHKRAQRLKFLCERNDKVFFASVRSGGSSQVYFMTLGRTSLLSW
Protocol: as §1, §2, §3, §4, §5, §6

TAOK2 (TAO1) (h) = TAOK2 (TAO1) (h) (Homo sapiens (Human), UniProt Q9UL54); experiment: Kinase selectivity panel: TAOK2 (TAO1) (h); settings: 10 μM in duplicate, read-out: % inhibition of control values
Protocol: as §1, §2, §3, §4, §5, §6

MYT1 kinase (h) = MYT1 kinase (h) (Homo sapiens (Human), UniProt Q99640); experiment: Kinase selectivity panel: MYT1 kinase (h); settings: 10 μM in duplicate, read-out: % inhibition of control values
Protocol: as §1, §2, §3, §4, §5, §6

AurA/Aur2 kinase (h) = AurA/Aur2 kinase (h) (Homo sapiens (Human), UniProt O14965); experiment: Kinase selectivity panel: AurA/Aur2 kinase (h); settings: 10 μM in duplicate, read-out: % inhibition of control values
Chain of AurA/Aur2 kinase (h) (O14965 whole entry): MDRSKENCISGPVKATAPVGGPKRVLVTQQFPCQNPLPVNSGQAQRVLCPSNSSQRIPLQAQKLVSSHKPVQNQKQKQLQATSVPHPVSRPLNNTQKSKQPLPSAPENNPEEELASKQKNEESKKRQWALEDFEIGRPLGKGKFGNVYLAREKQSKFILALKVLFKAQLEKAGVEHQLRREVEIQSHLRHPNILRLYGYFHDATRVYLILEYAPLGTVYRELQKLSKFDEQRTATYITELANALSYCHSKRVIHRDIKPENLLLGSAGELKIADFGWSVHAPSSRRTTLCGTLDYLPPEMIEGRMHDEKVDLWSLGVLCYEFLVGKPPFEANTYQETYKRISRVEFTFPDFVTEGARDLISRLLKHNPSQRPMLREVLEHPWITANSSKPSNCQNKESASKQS
Protocol: as §1, §2, §3, §4, §5, §6

AurB/Aur1 kinase (h) = AurB/Aur1 kinase (h) (Homo sapiens (Human), UniProt Q96GD4); experiment: Kinase selectivity panel: AurB/Aur1 kinase (h); settings: 10 μM in duplicate, read-out: % inhibition of control values
Protocol: as §1, §2, §3, §4, §5, §6

Row | inhibition at 10 µM (c-Met kinase (h)) | inhibition at 10 µM (EphA4 kinase (h)) | inhibition at 10 µM (FGFR4 kinase (h)) | inhibition at 10 µM (JAK1 (h)) | inhibition at 10 µM (JAK2 (h)) | inhibition at 10 µM (Src kinase (h)) | inhibition at 10 µM (DYRK1a (h)) | inhibition at 10 µM (CDC2/CDK1 (h) (cycB)) | inhibition at 10 µM (ERK2 (h) (P42mapk)) | inhibition at 10 µM (Pim2 kinase (h)) | inhibition at 10 µM (PhKgamma 2 (h)) | inhibition at 10 µM (Pim1 kinase (h)) | inhibition at 10 µM (GRK3/BARK2 (h) (ADRBK2)) | inhibition at 10 µM (PDK1 (h)) | inhibition at 10 µM (PKCalpha (h)) | inhibition at 10 µM (PKCgamma (h)) | inhibition at 10 µM (HGK (h) (MAP4K4)) | inhibition at 10 µM (TAOK2 (TAO1) (h)) | inhibition at 10 µM (MYT1 kinase (h)) | inhibition at 10 µM (AurA/Aur2 kinase (h)) | also measured | Structure (SMILES)
1 | 0% | 0% | 0% | 4% | 0% | 0% | 51% | 8% | 34% | 0% | 1% | 12% | 0% | 0% | 5% | 2% | 3% | 0% | 2% | 4% | inhibition at 10 µM (human GSK-3β): 94%; inhibition at 10 µM (AurB/Aur1 kinase (h)): 0% | COc1ccc2[nH]nc(C(=O)NCC3CCN(CCC(=O)O)CC3)c2c1 [Compound 3]
2 | 7% | 0% | 2% | 7% | 23% | 0% | 99% | 80% | 74% | 0% | 0% | 17% | 8% | 0% | 19% | 0% | 72% | 79% | 20% | 10% | inhibition at 10 µM (AurB/Aur1 kinase (h)): 0% | COCCN1CCC(CNC(=O)c2n[nH]c3ccc(-c4cccc(F)c4F)cc23)CC1 [Compound 8, 5-(2,3-difluorophenyl)-N-{[1-(2-methoxyethyl)piperidin-4-yl]methyl}-1H-indazole-3-carboxamide]
